Test results: patent publication US8193203B2, “Bicyclic compounds having activity at the CXCR4 receptor” (Allergan, Inc., priority 2008, dated 2012)

Biological target: T1, human CXCR4 receptor (Homo sapiens, UniProt P61073)
T1 construct: expressed in transfected cells
Experiment: Measurement of intracellular Ca+2 responses (FLIPR), antagonism of the SDF-1α response
Type: cell-based
Conditions: for IC50: HEK-Gqi5 cells stably expressing human CXCR4, Fluo-4 FLIPR, antagonism of SDF-1α 1.9 nM (EC65); for CXCR4 (% Inh): percent antagonism of SDF-1α 1.9 nM (EC65) response, HEK-Gqi5 human CXCR4 cells, value in brackets
Procedure: Measurement of Intracellular Ca^+2 Responses for CXCR4 Compounds
HEK-Gqi5 cells stably expressing the human CXCR4 receptor were utilized for these studies. The growth media for the CXCR4 receptor expressing cell line was DMEM high glucose medium supplemented with 10% fetal bovine serum (FBS), 1% antibiotic-antimycotic, 50 ug/ml hygromycin B, and 400 μg/ml geneticin. Ten thousand cells per well were plated into 384-well poly-D-lysine coated plates one day prior to use. On the day of the experiment, the cells were washed twice with Hank's Balanced Salt Solution supplemented with 20 mM hepes (HBSS/hepes buffer). The cells were then dye loaded with 2 uM Fluo-4 diluted in the HBSS/Hepes buffer and incubated at 37° C. for 40 minutes. Extracellular dye was removed by washing the cell plates four times prior to placing the plates in the FLIPR (Fluorometric Imaging Plate Reader, Molecular Devices). Ligands were diluted in HBSS/Hepes buffer and prepared in 384-well microplates. The positive control, stromal-cell derived factor-1 (SDF-1α), was diluted in HBSS/Hepes buffer with 4 mg/ml fatty acid free bovine serum albumin. Two drug additions were made by the FLIPR. The first drug addition was the test drug in concentrations ranging from 2.44 nM to 40,000 nM. After this addition, fluorescent measurements were taken. Any calcium release in response to this drug addition represents agonist activity of the compounds. The second drug addition was SDF-1α at a final concentration of 1.9 nM (EC65). Fluorescence measurements were also taken after this second drug addition and were used to determine the ability of the test compounds to antagonize the SDF-1α response. Results were expressed as EC50 and efficacy values, as well as IC50 and percent antagonism values. As controls, SDF-1α (CXCR4 agonist) and AMD3100 (CXCR4 antagonist) dose-response curves were also determined in each study.

T1 sequence (P61073 whole entry): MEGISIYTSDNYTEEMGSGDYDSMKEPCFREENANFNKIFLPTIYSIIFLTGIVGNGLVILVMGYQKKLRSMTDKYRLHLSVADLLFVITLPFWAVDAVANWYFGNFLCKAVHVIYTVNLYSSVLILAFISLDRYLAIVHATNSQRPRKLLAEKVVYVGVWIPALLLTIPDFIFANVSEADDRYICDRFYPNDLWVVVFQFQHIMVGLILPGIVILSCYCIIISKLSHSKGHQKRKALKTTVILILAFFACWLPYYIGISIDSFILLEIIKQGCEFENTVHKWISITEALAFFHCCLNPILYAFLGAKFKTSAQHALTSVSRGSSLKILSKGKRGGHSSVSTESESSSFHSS

## CCN(CC)CCCNc1nc(NC2CCN(Cc3ccccc3N(C)C)CC2)c2cc(OC)c(OC)cc2n1 [Compound 30, N2-(3-(Diethylamino)propyl)-N4-(1-(2-(dimethylamino)benzyl)piperidin-4-yl)-6,7-dimethoxyquinazoline-2,4-diamine]
Values in nM
  IC50: 270 nM
  CXCR4 (% Inh): 100%

## CCN(CC)C(=O)CCNc1nc(NC2CCN(Cc3ccccc3N(C)C)CC2)c2cc(OC)c(OC)cc2n1 [Compound 31]
Values given in μM
  IC50: 2400 nM
  CXCR4 (% Inh): 92%

## CCN(CC)CCNc1nc(NC2CCN(Cc3ccccc3N(C)C)CC2)c2cc(OC)c(OC)cc2n1 [Compound 32]
Values in nM
  IC50: 343 nM
  CXCR4 (% Inh): 90%

## COc1cc2nc(NCCCN3CCCC3)nc(NC3CCN(Cc4ccccc4N(C)C)CC3)c2cc1OC [Compound 33]
Values in nM
  IC50: 617 nM
  CXCR4 (% Inh): 93%

## CCN(CC)CCCNc1nc(NC2CCN(Cc3ccccc3N(C)C)CC2)c2ccccc2n1 [Compound 35, N2-(3-(Diethylamino)propyl)-N4-(1-(2-(dimethylamino)benzyl)piperidin-4-yl)quinazoline-2,4-diamine]
Values in nM
  IC50: 330 nM
  CXCR4 (% Inh): 90%

## CCN(CC)CCNc1nc(NC2CCN(Cc3ccccc3N(C)C)CC2)c2ccccc2n1 [Compound 36, N2-(2-(Diethylamino)ethyl)-N4-(1-(2-(dimethylamino)benzyl)piperidin-4-yl)quinazoline-2,4-diamine]
Values in nM
  IC50: 800 nM
  CXCR4 (% Inh): 90%

## CCN(CC)CCNc1nc(NC2CCN(Cc3c(OC)cccc3N(C)C)CC2)c2cc(OC)c(OC)cc2n1 [Compound 41, N2-(2-(Diethylamino)ethyl)-N4-(1-(2-(dimethylamino)-6-methoxybenzyl)piperidin-4-yl)-6,7-dimethoxyquinazoline-2,4-diamine]
Values in nM
  IC50: 360 nM
  CXCR4 (% Inh): 100%

## CCN(CC)CCCNc1nc(NC2CCN(Cc3c(OC)cccc3N(C)C)CC2)c2cc(OC)c(OC)cc2n1 [Compound 42, N2-(3-(Diethylamino)propyl)-N4-(1-(2-(dimethylamino)-6-methoxybenzyl)piperidin-4-yl)-6,7-dimethoxyquinazoline-2,4-diamine]
Values in nM
  IC50: 179 nM
  CXCR4 (% Inh): 98%

## CCN(CC)CCCNc1nc(NC2CCN(Cc3c(OC)cccc3N(C)C)CC2)c2ccccc2n1 [Compound 48, N2-(3-(Diethylamino)propyl)-N4-(1-(2-(dimethylamino)-6-methoxybenzyl)piperidin-4-yl)quinazoline-2,4-diamine]
Values in nM
  IC50: 150 nM
  CXCR4 (% Inh): 100%

## CCN(CC)CCCNc1nc(NC2CCN(Cc3ccccc3N3CCCCC3)CC2)c2cc(OC)c(OC)cc2n1 [Compound 50]
Values given in μM
  IC50: 6700 nM
  CXCR4 (% Inh): 86%

## CCN(CC)CCCNc1nc(NC2CCN(Cc3ccccc3N3CCCC3)CC2)c2cc(OC)c(OC)cc2n1 [Compound 51]
Values given in μM
  IC50: 1100 nM
  CXCR4 (% Inh): 92%

## COc1cc2nc(N3CCCCCC3)nc(NC3CCN(Cc4c(OC)cccc4N(C)C)CC3)c2cc1OC [Compound 52, 2-(Azepan-1-yl)-N-(1-(2-(dimethylamino)-6-methoxybenzyl)piperidin-4-yl)-6,7-dimethoxyquinazolin-4-amine]
Values in nM
  IC50: 730 nM
  CXCR4 (% Inh): 90%

## CCN(CC)CCCNc1nc(NC2CCN(Cc3ccccc3[N+](=O)[O-])CC2)c2cc(OC)c(OC)cc2n1 [Compound 65, N2-(3-(Diethylamino)propyl)-6,7-dimethoxy-N4-(1-(2-nitrobenzyl)piperidin-4-yl)quinazoline-2,4-diamine]
Values given in μM
  IC50: 4900 nM
  CXCR4 (% Inh): 93%

## CCN(CC)CCCCNc1nc(NC2CCN(Cc3c(OC)cccc3N(C)C)CC2)c2ccccc2n1 [Compound 66, N2-(4-(Diethylamino)butyl)-N4-(1-(2-(dimethylamino)-6-methoxybenzyl)piperidin-4-yl)quinazoline-2,4-diamine]
Values in nM
  IC50: 200 nM
  CXCR4 (% Inh): 93%

## CCN(CC)CCCCCNc1nc(NC2CCN(Cc3c(OC)cccc3N(C)C)CC2)c2ccccc2n1 [Compound 67, N2-(5-(Diethylamino)pentyl)-N4-(1-(2-(dimethylamino)-6-methoxybenzyl)piperidin-4-yl)quinazoline-2,4-diamine]
Values given in μM
  IC50: 1900 nM
  CXCR4 (% Inh): 88%

## COc1cccc(N(C)C)c1CN1CCC(Nc2nc(NCCCN(C)C)nc3ccccc23)CC1 [Compound 68, N4-(1-(2-(Dimethylamino)-6-methoxybenzyl)piperidin-4-yl)-N2-(3-(dimethylamino)propyl)quinazoline-2,4-diamine]
Values in nM
  IC50: 41 nM
  CXCR4 (% Inh): 95%

## COc1cc2nc(NCCCN(C)C)nc(NC3CCN(Cc4c(OCCN(C)C)cccc4N(C)C)CC3)c2cc1OC [Compound 76, N4-(1-(2-(Dimethylamino)-6-(2-(dimethylamino)ethoxy)benzyl)piperidin-4-yl)-N-2-(3-(dimethylamino)propyl)-6,7-dimethoxyquinazoline-2,4-diamine]
Values in nM
  IC50: 19 nM
  CXCR4 (% Inh): 94%

## COc1cc2nc(NCCCN(C)C)nc(NC3CCN(Cc4c(OC)cccc4N(C)C)CC3)c2cc1OC [Compound 78]
Values in nM
  IC50: 283 nM
  CXCR4 (% Inh): 100%

## COc1cccc(N(C)C)c1CN1CCC(Nc2nc(NCCCN)nc3ccccc23)CC1 [Compound 80, N˜2˜-(3-Aminopropyl)-N˜4˜-{1-[2-(dimethylamino)-6-methoxybenzyl]piperidin-4-yl}quinazoline-2,4-diamine]
Values in nM
  IC50: 130 nM
  CXCR4 (% Inh): 94%

## CCOP(=O)(CCCNc1nc(NC2CCN(Cc3c(OC)cccc3N(C)C)CC2)c2ccccc2n1)OCC [Compound 81, Diethyl 3-(4-(1-(2-(Dimethylamino)-6-methoxybenzyl)piperidin-4-ylamino)quinazolin-2-ylamino)propylphosphonate]
Values given in μM
  IC50: 1600 nM
  CXCR4 (% Inh): 99%

## COc1cccc(N(C)C)c1CN1CCC(Nc2nc(NCc3ccccn3)nc3ccccc23)CC1 [Compound 84, N4-(1-(2-(Dimethylamino)-6-methoxybenzyl)piperidin-4-yl)-N2-(pyridin-2-ylmethyl)quinazoline-2,4-diamine]
Values in nM
  IC50: 574 nM
  CXCR4 (% Inh): 95%

## COc1cccc(N(C)C)c1CN1CCC(Nc2nc(N3CCCC(C(N)=O)C3)nc3ccccc23)CC1 (stereo not drawn) [Compound 85, 1-(4-(1-(2-(Dimethylamino)-6-methoxybenzyl)piperidin-4-ylamino)quinazolin-2-yl)piperidine-3-carboxamide]
Values given in μM
  IC50: 4900 nM
  CXCR4 (% Inh): 93%

## COc1cccc(N(C)C)c1CN1CCC(Nc2nc(N3CCN(C(C)=O)CC3)nc3ccccc23)CC1 [Compound 86, 1-(4-(4-(1-(2-(Dimethylamino)-6-methoxybenzyl)piperidin-4-ylamino)quinazolin-2-yl)piperazin-1-yl)ethanone]
Values given in μM
  IC50: 3500 nM
  CXCR4 (% Inh): 86%

## COCCCNc1nc(NC2CCN(Cc3c(OC)cccc3N(C)C)CC2)c2ccccc2n1 [Compound 87, N4-(1-(2-(Dimethylamino)-6-methoxybenzyl)piperidin-4-yl)-N2-(3-methoxypropyl)quinazoline-2,4-diamine]
Values in nM
  IC50: 810 nM
  CXCR4 (% Inh): 96%

## COc1cccc(N(C)C)c1CN1CCC(Nc2nc(N3CCC3)nc3ccccc23)CC1 [Compound 88, 2-(Azetidin-1-yl)-N-(1-(2-(dimethylamino)-6-methoxybenzyl)piperidin-4-yl)quinazolin-4-amine]
Values given in μM
  IC50: 1900 nM
  CXCR4 (% Inh): 94%

## COc1cccc(N(C)C)c1CN1CCC(Nc2nc(NCCCN3CCCC3=O)nc3ccccc23)CC1 [Compound 89, 1-(3-(4-(1-(2-(Dimethylamino)-6-methoxybenzyl)piperidin-4-ylamino)quinazolin-2-ylamino)propyl)pyrrolidin-2-one]
Values given in μM
  IC50: 1400 nM
  CXCR4 (% Inh): 92%

## COc1cccc(N(C)C)c1CN1CCC(Nc2nc(N(CCO)C(C)=O)nc3ccccc23)CC1 [Compound 90, N-(4-(1-(2-(Dimethylamino)-6-methoxybenzyl)piperidin-4-ylamino)quinazolin-2-yl)-N-(2-hydroxyethyl)acetamide]
Values given in μM
  IC50: 1500 nM
  CXCR4 (% Inh): 93%

## CCCCNc1nc(NC2CCN(Cc3c(OC)cccc3N(C)C)CC2)c2ccccc2n1 [Compound 91, N2-Butyl-N4-(1-(2-(dimethylamino)-6-methoxybenzyl)piperidin-4-yl)quinazoline-2,4-diamine]
Values given in μM
  IC50: 2000 nM
  CXCR4 (% Inh): 80%

## COc1cccc(N(C)C)c1CN1CCC(Nc2nc(N3CC3)nc3ccccc23)CC1 [Compound 92, 2-(Aziridin-1-yl)-N-(1-(2-(dimethylamino)-6-methoxybenzyl)piperidin-4-yl)quinazolin-4-amine]
Values given in μM
  IC50: 2100 nM
  CXCR4 (% Inh): 75%

## COc1cccc(N(C)C)c1CN1CCC(Nc2nc(NCC(F)(F)F)nc3ccccc23)CC1 [Compound 93, N4-(1-(2-(Dimethylamino)-6-methoxybenzyl)piperidin-4-yl)-N2-(2,2,2-trifluoroethyl)quinazoline-2,4-diamine]
Values given in μM
  IC50: 4300 nM
  CXCR4 (% Inh): 79%
